Measured values taken from patent US20170305965A1, “Fab REGION-BINDING PEPTIDE” (KANEKA CORPORATION, priority 2014, published 2017).

Experiments:
[1] = test system: IgG-Fab of anti-HER2 monoclonal antibody (Trastuzumab); test: Biacore 3000 surface plasmon resonance analysis of affinity of SpG variants for immobilized IgG-Fab; format: binding, human; details: for KA (affinity constant, KA=kon/koff) / koff / kon: Anti-HER2 antibody - Fab immobilized on CM5, peptide 0.1-0.8 μM, 25° C., pH 7.4, 1:1 binding model; for KA Vs. Wild: ratio of KA to that of GB2*-Wild.1d, Anti-HER2 antibody - Fab
Text: A humanized monoclonal IgG product as a raw material was fragmented into a Fab fragment and a Fc fragment using papain, and only the Fab fragment was separated and purified. Hereinafter, a method for producing IgG-Fab derived from anti-HER2 monoclonal antibody (generic name: Trastuzumab) is described. In the present disclosure, when other IgG-Fab was used for evaluation, the fragment was basically prepared in a similar method.
Specifically, a humanized monoclonal IgG product (“HERCEPTIN” manufactured by CHUGAI PHARMACEUTICAL CO., LTD., in the case of anti-HER2 monoclonal antibody) was dissolved in a buffer for papain treatment (0.1 M AcOH—AcONa, 2 mM EDTA, 1 mM cysteine, pH 5.5), and agarose on which papain was immobilized (“Papain Agarose from papaya latex” manufactured by SIGMA) was added thereto. The mixture was incubated with stirring by a rotator at 37° C. for about 8 hours. The IgG-Fab was purified by recovering the IgG-Fab as a flow-through fraction in an affinity chromatography using KanCapA column (manufactured by GE Healthcare Bioscience) from the reaction mixture which contained both of a Fab fragment and a Fc fragment and which was separated from the agarose on which papain was immobilized. The obtained crude IgG-Fab solution was subjected to purification by gel filtration chromatography using Superdex 75 10/300 GL column to obtain IgG-Fab solution. In the chromatography, a standard buffer was used for equilibration and separation. Similarly to the above-described Example 1, AKTAprime plus system was used in the chromatography for protein purification.
The affinity of each of the SpG-β2* variant obtained in the above-described Example 1(2) for the IgG-Fab of anti-HER2 monoclonal antibody was evaluated using a biosensor Biacore 3000 (manufactured by GE Healthcare Bioscience) utilizing surface plasmon resonance. In the present Example, the IgG-Fab obtained in the above-described Example 2(1) was immobilized on a sensor tip, and each of the peptide was flown on the tip to detect the interaction between the two. The IgG-Fab was immobilized on a sensor tip CM5 by amine coupling method using N-hydroxysuccinimide (NHS) and N-ethyl-N′-(3-dimethylaminopropyl)carbodiimide hydrochloride (EDC), and ethanolamine was used for blocking. All of the sensor tip and reagents for immobilization was manufactured by GE Healthcare Bioscience. The IgG-Fab solution was diluted to about 10 times using a buffer for immobilization (10 mM AcOH—AcONa, pH 4.5), and the IgG-Fab was immobilized on the sensor tip in accordance with the protocol attached to the Biacore 3000. In addition, a reference cell as negative control was also prepared by activating another flow cell on the tip with EDC/NHS and then immobilizing human serum albumin (manufactured by Wako Pure Chemical Industries, Ltd.). Peptide solutions of each of the SpG-β2* variant having concentrations of […] were prepared using a running buffer (20 mM NaH2PO4—Na2HPO4, 150 mM NaCl, 0.005% P-20, pH 7.4). The peptide solution was added to the sensor tip in a flow rate of 10 μL/min for 4 minutes. Bonding response curves at the time of addition (association phase, for 4 minutes) and after the addition (dissociation phase, for 4 minutes) were sequentially obtained at a measurement temperature of 25° C. After each measurement, the added peptide remaining on the sensor tip was removed by flowing the running buffer for 5 minutes or more; and about 10 mM NaOH was added for wash between the measurements if required.
However, the concentration of a protein solution was adjusted to 0.8 μM, bonding response curves at the time of adding the solution (association phase, for 1 minute) and after the addition (dissociation phase, for 2 minutes) were obtained, and a fitting analysis was carried out using one concentration of the solution.

Fab region of IgG = details: cited from earlier work

Substance	KA (affinity constant, KA=kon/koff) [1]	koff [1]	kon [1]	KA Vs. Wild [1]	further results
GB2*-E15W.1d: SpG-β2* one residue variant with E15W, amino acid sequence SEQ ID NO: 23 (TTYKLVINGKTLKGWTTTKAVDAETAERAFRQYATDNGVEGMWTYDPATKTFTVTE; SpG Mutant)	1.08e+07 M⁻¹	0.011 s⁻¹	119000 s/M	4.8	–
GB2*-E15Y.1d: SpG-β2* one residue variant with E15Y, amino acid sequence SEQ ID NO: 21 (TTYKLVINGKTLKGYTTTKAVDAETAERAFRQYATDNGVEGMWTYDPATKTFTVTE; SpG Mutant)	9.3e+06 M⁻¹	0.01 s⁻¹	92000 s/M	4.0	–
GB2*-T02R.1d: SpG-β2* one residue variant with T02R, amino acid sequence SEQ ID NO: 19 (TRYKLVINGKTLKGETTTKAVDAETAERAFRQYATDNGVEGMWTYDPATKTFTVTE; SpG Mutant)	9.8e+06 M⁻¹	0.01 s⁻¹	98000 s/M	4.3	–
GB2*-T02R/E15Y.1d: two residues variant of SpG-β2* with T02R and E15Y, SEQ ID NO: 27 (TRYKLVINGKTLKGYTTTKAVDAETAERAFRQYATDNGVEGMWTYDPATKTFTVTE; SpG Mutant)	–	–	–	–	binding response (bonding response curve, FIG. 3) ([1]; protein solution 0.8 μM, raw bonding response curve compared under the same concentration): higher than those of GB2*-Wild.1d and GB2*-T02R.1d
GB2*-Wild.1d: SpG β2 domain variant having excellent thermal stability, SEQ ID NO: 3; comparative example before introducing the mutation (TTYKLVINGKTLKGETTTKAVDAETAERAFRQYATDNGVEGMWTYDPATKTFTVTE; SpG Mutant) [reference compound]	2.3e+06 M⁻¹	0.038 s⁻¹	88000 s/M	–	difference between association constant of the Patent Document 2 variant and association constant shown in Table 2 ([1]; GB2*-Wild.1d (Table 2) versus variant of Patent Document 2): about 1.4 times
GB2-E15W.1d: E15W mutation introduced into wild SpG-β2 domain, SEQ ID NO: 25 (TTYKLVINGKTLKGWTTTKAVDAETAEKAFKQYANDNGVDGVWTYDDATKTFTVTE; SpG Mutant)	–	–	–	–	association constant KA ([1]; fitting analysis using one concentration, 0.8 μM, association phase 1 minute, dissociation phase 2 minutes): 1.6e+06 M⁻¹
GB2-Wild.1d: wild β2 domain of Protein G, SEQ ID NO: 2 (TTYKLVINGKTLKGETTTKAVDAETAEKAFKQYANDNGVDGVWTYDDATKTFTVTE; Streptococcus sp. GX7809)	–	–	–	–	Kd (Fab region of IgG; described in Table 1 of Patent Document 2, read-out: dissociation constant): 2570 nM; association constant (inverse number of the dissociation constant of Patent Document 2) (Fab region of IgG; inverse of the dissociation constant in Table 1 of Patent Document 2): 400000 M⁻¹
